Laboratory results published in US11739069B2, “Modulators of resistant androgen receptor” (priority 2012, dated 2023).
Numbering of substitutions follows the chain as printed. “Also recorded” adds a separate entry of the source.

Tests used:
mutant AR T877A [1] = molecular target: T1, mutant AR T877A (Homo sapiens, UniProt P10275, DEL79-80/DUP473-473/T878A); details: Ozers et al., Biochemistry (2007) 46, 683; cited from earlier work
T1 sequence (P10275 with tags, fused parts or gaps DEL79-80/DUP473-473/T878A): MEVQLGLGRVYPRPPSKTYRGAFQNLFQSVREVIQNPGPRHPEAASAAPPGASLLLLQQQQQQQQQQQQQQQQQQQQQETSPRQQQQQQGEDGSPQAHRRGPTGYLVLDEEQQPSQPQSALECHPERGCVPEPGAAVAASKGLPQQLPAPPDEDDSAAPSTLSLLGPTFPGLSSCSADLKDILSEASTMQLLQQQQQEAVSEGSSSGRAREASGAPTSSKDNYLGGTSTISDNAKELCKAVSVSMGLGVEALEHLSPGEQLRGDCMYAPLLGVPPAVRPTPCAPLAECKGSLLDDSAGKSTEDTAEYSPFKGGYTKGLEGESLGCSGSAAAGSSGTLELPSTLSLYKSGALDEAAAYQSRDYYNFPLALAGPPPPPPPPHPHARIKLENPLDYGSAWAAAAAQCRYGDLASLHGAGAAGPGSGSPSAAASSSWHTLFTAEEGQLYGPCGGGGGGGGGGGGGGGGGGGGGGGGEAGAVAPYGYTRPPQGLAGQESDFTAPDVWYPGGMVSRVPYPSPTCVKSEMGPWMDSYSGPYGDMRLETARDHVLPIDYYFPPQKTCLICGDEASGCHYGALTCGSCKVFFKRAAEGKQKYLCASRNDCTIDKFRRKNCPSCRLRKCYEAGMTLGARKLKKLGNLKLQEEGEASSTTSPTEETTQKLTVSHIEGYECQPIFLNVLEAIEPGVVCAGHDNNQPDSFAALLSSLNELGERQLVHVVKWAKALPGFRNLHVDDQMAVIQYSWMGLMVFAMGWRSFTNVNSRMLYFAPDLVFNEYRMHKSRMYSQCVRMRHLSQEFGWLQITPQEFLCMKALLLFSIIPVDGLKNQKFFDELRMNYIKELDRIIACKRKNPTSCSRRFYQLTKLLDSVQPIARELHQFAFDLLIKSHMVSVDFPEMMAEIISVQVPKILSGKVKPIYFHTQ

mutant AR T877A [2] = molecular target: T1, mutant AR T877A; details: cited from earlier work
[3] = system: VCaP cells expressing mutant F876L androgen receptor; assay: In vitro cell viability assay, VCaP cells expressing mutant F876L AR (FIG. 17); format: cell-based
AR F876L [4] = molecular target: T2, AR F876L (Homo sapiens, UniProt P10275, DEL79-80/DUP473-473/F877L); assay: AR signaling and PARP cleavage in cells expressing AR F876L (FIG. 27); format: cell-based
T2 construct: expressed in transfected cells
T2 sequence (P10275 with tags, fused parts or gaps DEL79-80/DUP473-473/F877L): T1 sequence (P10275 with tags, fused parts or gaps DEL79-80/DUP473-473/T878A) with F876L, A877T

AR F876L [5] = molecular target: T2, AR F876L; assay: AR luciferase reporter assay, AR F876L versus AR WT (FIG. 26); format: cell-based
Experimental: (§1) Compounds of the present invention were assayed in an in vitro AR luciferase reporter assay reporter assay, which can be used to determine the effect of compounds on AR transcriptional activity. CV1 cells were engineered to express an AR-regulated luciferase reporter, such that luciferase expression indicates AR transcriptional activity. A representative procedure for this assay follows.
(§2) CV1 cells (10^6 cells/10 cm plate) were cotransfected with 50 ng of SV40 Renilla Luciferase, 5 ug of ARE(4X)-Luciferase, and […] of one pWZL-AR expression construct using Lipofectamine 2000 (Invitrogen). Transfection media was removed 4-6 hours later and replaced with phenol red free DME-HG containing 10% charcoal stripped serum. The following day each plate was split into 24- or 48-well plates, in 10% CSS media, containing the indicated drugs in triplicate. Twenty-four to forty-eight hours later, luciferase activity was assayed using Dual-Luciferase Reporter Assay System (Promega) on a 96-well luminometer (Turner Biosystems). In some embodiments, a provided compound is considered to be a modulator of a tested AR if it results in similar effects on induced expression of luciferase in the luciferase reporter assay as compared with a reference androgen or anti-androgen.

[6] = system: VCaP cells expressing wild type androgen receptor; assay: In vitro cell viability assay, VCaP cells expressing wild type AR (FIG. 17); format: cell-based
AR = molecular target: T3, AR (Homo sapiens, UniProt P10275, DEL79-80/DUP473-473); assay: AR luciferase reporter assay, competition with DHT (FIG. 25); format: cell-based
T3 construct: expressed in transfected cells; host or cells: CV1 cells
T3 sequence (P10275 with tags, fused parts or gaps DEL79-80/DUP473-473): T1 sequence (P10275 with tags, fused parts or gaps DEL79-80/DUP473-473/T878A) with A877T
Experimental: as §1, §2

[7] = system: CWR22PC cells expressing mutant F876L androgen receptor; assay: In vitro cell viability assay (CellTiterGLO), CWR22PC cells expressing AR F876L (FIG. 18); format: cell-based; details: 10 uM, days 1, 4, 7
Experimental: (§3) Compounds of the present invention were also assayed in an in vitro cell viability assay in CWR22PC cancer cells. A representative procedure follows. CWR22PC cells ectopically expressing wild-type AR or AR F876L, cultured in full-serum containing media, were treated with vehicle (DMSO) or 10 uM of enzalutamide or compound I-1. CellTiterGLO assay was performed on days 1, 4, and 7 to determine cell viability. Results of a cell viability assay in CWR22PC cells are depicted in FIG. 18. On the y-axis RLU means relative light units. More light […] means more viable cells. In some embodiments, a provided compound is considered to be a modulator of a tested AR if it results in similar effects on cell viability as compared with a reference androgen or anti-androgen.

AR WT [8] = assay: AR signaling and PARP cleavage in cells expressing AR WT (FIG. 27); format: cell-based
[9] = system: CWR22PC cells expressing wild type androgen receptor; assay: In vitro cell viability assay (CellTiterGLO), CWR22PC cells expressing wild-type AR (FIG. 18); format: cell-based; details: 10 uM, days 1, 4, 7
Experimental: as §3

AR WT [10] = details: LNCaP cells ectopically expressing AR WT; compared with AR F876L cells
Experimental: The cells were propagated in RPMI media supplemented with 10% CSS (charcoal-stripped, dextran-treated fetal bovine serum). Cells were trypsinized, washed in PBS, and triplicate cell samples were mixed with 20,000 cpm 18F-FDHT and increasing amounts of cold competitor (0.1 nM to 10 uM). The solutions were shaken on an orbital shaker at ambient temperature, and after 1 hour the cells were isolated and washed with ice-cold Tris-buffered saline using a Brandel cell harvester (Gaithersburg, Md.). All the isolated cell samples were counted using a scintillation counter, with appropriate standards of total activity and blank controls, and the specific uptake of ^18F-FDHT determined.

CC(C)(O)C(=O)Nc1ccc([N+](=O)[O-])c(C(F)(F)F)c1 [hydroxyflutamide]
binding affinity to mutant AR T877A compared with AR WT (mutant AR T877A [1]): higher affinity | agonist activity on mutant AR (mutant AR T877A [2]): act as AR agonists; also recorded: confers agonism

CNC(=O)c1ccc(N2C(=S)N(c3ccc(C#N)c(C(F)(F)F)c3)C(=O)[C@@]23CCCC(C)(C)C3)cc1F (stereo in doubt) [Compound I-1, 4-(3-(4-cyano-3-(trifluoromethyl)phenyl)-7,7-dimethyl-4-oxo-2-thioxo-1,3-diazaspiro[4.5]decan-1-yl)-2-fluoro-N-methylbenzamide]
ability to kill or inhibit the growth of cells [3]: kill or inhibit the growth of VCaP cells | induction of PARP cleavage (AR F876L [4]): induce PARP cleavage | inhibition of AR signaling (AR F876L [4]): inhibit AR signaling | potency as agonist for AR F876L compared with AR WT (AR F876L [5]): more potent agonist for AR F876L than AR WT | ability to kill or inhibit the growth of cells [6]: kill or inhibit the growth of VCaP cells | competition with dihydrotestosterone (DHT) for AR binding and induction of AR-regulated luciferase (AR): effectively competes with dihydrotestosterone (DHT) | ability to kill or inhibit the growth of cells [7]: kill or inhibit the growth of CWR22PC cells | induction of PARP cleavage (AR WT [8]): induce PARP cleavage | inhibition of AR signaling (AR WT [8]): inhibit AR signaling | ability to kill or inhibit the growth of cells [9]: kill or inhibit the growth of CWR22PC cells

C[C@]12CCC(=O)C[C@@H]1CC[C@@H]1[C@@H]2CC[C@]2(C)[C@@H](O)CC[C@@H]12 [DHT, dihydrotestosterone]
IC50 for displacement of 18F-FDHT (AR WT [10]): comparable IC50
